# Measurements: PubChem BioAssay (NCI)
#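 Interpolation was linear, between the two tested concentrations surrounding the appropriate level; five concentrations were tested over 48 hours in 96-well plates. TGI is the concentration that stops growth completely.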
# Assays:
# Experiment in all cases: NCI tumour cell line growth inhibition, 48 h
# CAKI-1 renal = test system: CAKI-1 renal
# COLO 205 colon = test system: COLO 205 colon
# SNB-78 CNS = test system: SNB-78 CNS
# U251 CNS = test system: U251 CNS
# SNB-75 CNS = test system: SNB-75 CNS
# SK-MEL-5 melanoma = test system: SK-MEL-5 melanoma
# RXF 393 renal = test system: RXF 393 renal
# HT29 colon = test system: HT29 colon
# UACC-62 melanoma = test system: UACC-62 melanoma
# HCT-116 colon = test system: HCT-116 colon
# IGROV1 ovarian = test system: IGROV1 ovarian
# OVCAR-5 ovarian = test system: OVCAR-5 ovarian
# RXF-631 renal = test system: RXF-631 renal
# KM20L2 colon = test system: KM20L2 colon
# CCRF-CEM leukemia = test system: CCRF-CEM leukemia
# HOP-62 NSCLC = test system: HOP-62 NSCLC
# M14 melanoma = test system: M14 melanoma
# NCI-H460 lung = test system: NCI-H460 lung
# SF-295 CNS = test system: SF-295 CNS
# OVCAR-4 ovarian = test system: OVCAR-4 ovarian
# M19-MEL melanoma = test system: M19-MEL melanoma
# KM12 colon = test system: KM12 colon
# DMS 114 small cell lung = test system: DMS 114 small cell lung
# HOP-92 NSCLC = test system: HOP-92 NSCLC
# DLD-1 colon = test system: DLD-1 colon
# SK-MEL-28 melanoma = test system: SK-MEL-28 melanoma
# SF-268 CNS = test system: SF-268 CNS
# RPMI-8226 leukemia = test system: RPMI-8226 leukemia
# SN12C renal = test system: SN12C renal
# UACC-257 melanoma = test system: UACC-257 melanoma
# HCC-2998 colon = test system: HCC-2998 colon
# DMS 273 small cell lung = test system: DMS 273 small cell lung
# EKVX NSCLC = test system: EKVX NSCLC
# NCI-H23 lung = test system: NCI-H23 lung
# SNB-19 CNS = test system: SNB-19 CNS
# SR leukemia = test system: SR leukemia
# NCI-H226 lung = test system: NCI-H226 lung
# LOX IMVI melanoma = test system: LOX IMVI melanoma
# NCI-H522 lung = test system: NCI-H522 lung
# A498 renal = test system: A498 renal
# MALME-3M melanoma = test system: MALME-3M melanoma
# SK-OV-3 ovarian = test system: SK-OV-3 ovarian
# SW-620 colon = test system: SW-620 colon
# UO-31 renal = test system: UO-31 renal
# TK-10 renal = test system: TK-10 renal
# HCT-15 colon = test system: HCT-15 colon
# LXFL 529 NSCLC = test system: LXFL 529 NSCLC
# OVCAR-8 ovarian = test system: OVCAR-8 ovarian
# ACHN renal = test system: ACHN renal
# A549 NSCLC = test system: A549 NSCLC
# SF-539 CNS = test system: SF-539 CNS
# HL-60(TB) leukemia = test system: HL-60(TB) leukemia
# 786-0 renal = test system: 786-0 renal
# OVCAR-3 ovarian = test system: OVCAR-3 ovarian
# MOLT-4 leukemia = test system: MOLT-4 leukemia
# K-562 leukemia = test system: K-562 leukemia
# XF 498 CNS = test system: XF 498 CNS
# HOP-18 NSCLC = test system: HOP-18 NSCLC
# SK-MEL-2 melanoma = test system: SK-MEL-2 melanoma
compound,measurement,setting,value
COC(=O)C1C(=O)O[C@@H](c2ccc3c(c2)OCO3)C1C(=O)OC (mixture of isomers),TGI,CAKI-1 renal,> 100 µM
same,TGI,COLO 205 colon,> 100 µM
same,TGI,SNB-78 CNS,> 100 µM
same,TGI,U251 CNS,> 100 µM
same,TGI,SNB-75 CNS,> 100 µM
same,TGI,SK-MEL-5 melanoma,> 100 µM
same,TGI,RXF 393 renal,> 100 µM
same,TGI,HT29 colon,> 100 µM
same,TGI,UACC-62 melanoma,> 100 µM
same,TGI,HCT-116 colon,> 100 µM
same,TGI,IGROV1 ovarian,> 100 µM
same,TGI,OVCAR-5 ovarian,> 100 µM
same,TGI,RXF-631 renal,> 100 µM
same,TGI,KM20L2 colon,> 100 µM
same,TGI,CCRF-CEM leukemia,> 100 µM
same,TGI,HOP-62 NSCLC,> 100 µM
same,TGI,M14 melanoma,> 100 µM
same,TGI,NCI-H460 lung,> 100 µM
same,TGI,SF-295 CNS,> 100 µM
same,TGI,OVCAR-4 ovarian,> 100 µM
same,TGI,M19-MEL melanoma,> 100 µM
same,TGI,KM12 colon,> 100 µM
same,TGI,DMS 114 small cell lung,> 100 µM
same,TGI,HOP-92 NSCLC,> 100 µM
same,TGI,DLD-1 colon,> 100 µM
same,TGI,SK-MEL-28 melanoma,> 100 µM
same,TGI,SF-268 CNS,> 100 µM
same,TGI,RPMI-8226 leukemia,> 100 µM
same,TGI,SN12C renal,> 100 µM
same,TGI,UACC-257 melanoma,> 100 µM
same,TGI,HCC-2998 colon,> 100 µM
same,TGI,DMS 273 small cell lung,> 100 µM
same,TGI,EKVX NSCLC,> 100 µM
same,TGI,NCI-H23 lung,> 100 µM
same,TGI,SNB-19 CNS,> 100 µM
same,TGI,SR leukemia,> 100 µM
same,TGI,NCI-H226 lung,> 100 µM
same,TGI,LOX IMVI melanoma,> 100 µM
same,TGI,NCI-H522 lung,> 100 µM
same,TGI,A498 renal,> 100 µM
same,TGI,MALME-3M melanoma,> 100 µM
same,TGI,SK-OV-3 ovarian,> 100 µM
same,TGI,SW-620 colon,> 100 µM
same,TGI,UO-31 renal,> 100 µM
same,TGI,TK-10 renal,> 100 µM
same,TGI,HCT-15 colon,> 100 µM
same,TGI,LXFL 529 NSCLC,> 100 µM
same,TGI,OVCAR-8 ovarian,> 100 µM
same,TGI,ACHN renal,> 100 µM
same,TGI,A549 NSCLC,> 100 µM
same,TGI,SF-539 CNS,> 100 µM
same,TGI,HL-60(TB) leukemia,> 100 µM
same,TGI,786-0 renal,> 100 µM
same,TGI,OVCAR-3 ovarian,> 100 µM
same,TGI,MOLT-4 leukemia,> 100 µM
same,TGI,K-562 leukemia,> 100 µM
C[C@]12CCC3[C@@H](CCC45OC4C(=O)CC[C@]35C)C1Cc1cnn(-c3ccc(F)cc3)c1N2 (some centres undefined),TGI,COLO 205 colon,> 100 µM
same,TGI,SNB-78 CNS,79 µM
same,TGI,U251 CNS,98 µM
same,TGI,SNB-75 CNS,> 100 µM
same,TGI,SK-MEL-5 melanoma,> 100 µM
same,TGI,RXF 393 renal,87.2 µM
same,TGI,HT29 colon,33 µM
same,TGI,UACC-62 melanoma,68.9 µM
same,TGI,HCT-116 colon,29 µM
same,TGI,KM20L2 colon,62.6 µM
same,TGI,XF 498 CNS,> 100 µM
same,TGI,CCRF-CEM leukemia,> 100 µM
same,TGI,HOP-62 NSCLC,> 100 µM
same,TGI,M14 melanoma,> 100 µM
same,TGI,NCI-H460 lung,> 100 µM
same,TGI,SF-295 CNS,> 100 µM
same,TGI,M19-MEL melanoma,> 100 µM
same,TGI,KM12 colon,55.1 µM
same,TGI,DMS 114 small cell lung,50.5 µM
same,TGI,SK-MEL-28 melanoma,85.2 µM
same,TGI,SF-268 CNS,77.8 µM
same,TGI,RPMI-8226 leukemia,54.7 µM
same,TGI,SN12C renal,48.4 µM
same,TGI,UACC-257 melanoma,> 100 µM
same,TGI,DMS 273 small cell lung,38.9 µM
same,TGI,EKVX NSCLC,> 100 µM
same,TGI,NCI-H23 lung,54.4 µM
same,TGI,SNB-19 CNS,92.6 µM
same,TGI,SR leukemia,> 100 µM
same,TGI,NCI-H226 lung,> 100 µM
same,TGI,LOX IMVI melanoma,31.9 µM
same,TGI,NCI-H522 lung,34.8 µM
same,TGI,MALME-3M melanoma,> 100 µM
same,TGI,SK-OV-3 ovarian,> 100 µM
same,TGI,SW-620 colon,97 µM
same,TGI,UO-31 renal,> 100 µM
same,TGI,TK-10 renal,> 100 µM
same,TGI,HCT-15 colon,33.9 µM
same,TGI,LXFL 529 NSCLC,> 100 µM
same,TGI,OVCAR-8 ovarian,> 100 µM
same,TGI,ACHN renal,> 100 µM
same,TGI,A549 NSCLC,> 100 µM
same,TGI,HOP-18 NSCLC,> 100 µM
same,TGI,HL-60(TB) leukemia,41.9 µM
same,TGI,SK-MEL-2 melanoma,> 100 µM
same,TGI,786-0 renal,35.2 µM
same,TGI,MOLT-4 leukemia,94.7 µM
same,TGI,K-562 leukemia,66.8 µM
